{"source": "patent US12576155B2", "about": "“Senolytic and antiinflammatory prodrugs and methods of use thereof” (priority 2019, dated 2026)", "key": {"[1]": {"test_system": "primary mouse fibroblasts and their replication-induced senescent counterparts", "test": "Cell viability testing, senescent vs non-senescent primary mouse fibroblasts", "type": "cell-based", "details": "increasing doses; senescent vs non-senescent cells", "description": "Mouse embryonic fibroblasts (MEFs) were isolated from E13.5 embryos as described previously (Zhao et al., Cell Stem Cell 23, 31-45 e37([…])). Newborn mouse skin fibroblasts (NBFs) were isolated from the skin of day 1-3 newborn mice. Adult mouse lung fibroblasts were isolated from 2-month-old and 23-month-old mice. Briefly, mouse embryonic tissues, skin and lung were obtained from described donor mice. Then, these tissues were minced with forceps and incubated in 2 mg/ml collagenase IV (Gibco) for 2-4 hours at 37° C. After enzyme treatment, cells were collected by centrifugation and resuspended in high-glucose DMEM (Gibco) supplemented with 10% fetal bovine serum (FBS) and 1% penicillin-streptomycin (Gibco). The three types of mouse primary cells were all cultured in a humidified incubator at 37° C. and 5% CO2.\nTo avoid replication-induced senescent cells, low-passage proliferative NBFs (<3 passages), MEFs (<3 passages), mouse lung fibroblasts (<3 passages), HEFs (<10 passages), and HUVECs (<6 passages) were used as normal controls. To induce cell quiescence, MEFs were cultured in DMEM without FBS for 2 days.\n(§1) For replication-induced senescence, cells were passaged until they lost the ability to proliferate and became senescent. NBFs were used as senescent cells after approximately 8-9 passages or 12 population doublings. HEFs were used after approximately 35 passages or 50 population doublings. HUVECs were senescent after approximately 18 passages or 24 population doublings.\n(§2) To test the viability of senescent and non-senescent cells treated with SSK1, cells were stained with a mixture of Hoechst 33342 and propidium iodide (PI) (CA1120, Solarbio) to distinguish living and dead cells. After treatment with the small molecules, the cell culture medium was removed, and the cells were washed once with PBS. […] The plate was incubated at 4° C. for 30 min and observed on a fluorescence microscope or automatic cell imaging system. Viable cells were quantified using a MD Image Xpress Micro XL (Molecular Devices)."}, "[2]": {"test_system": "GLB1 knockdown (shGLB1-1 and -2) senescent cells", "test": "Cell viability of GLB1 knockdown senescent cells", "type": "cell-based", "details": "SSK1 0.5 μM; shGLB1-1 and -2 vs shControl", "description": "Plasmids used to interfere the expression of GLB1 with short hairpin RNAs (shRNAs) were obtained from Sigma MISSION shRNA. Genetic knockdown was performed according to the manufacturer's protocol.\nLentivirus production, collection, and infection were as described (Zhao et al., Cell Stem Cell 3, 475-479(2008)).\nTo test the viability of senescent and non-senescent cells treated with SSK1, cells were stained with a mixture of Hoechst 33342 and propidium iodide (PI) (CA1120, Solarbio) to distinguish living and dead cells. After treatment with the small molecules, the cell culture medium was removed, and the cells were washed once with PBS. Then, the cells were stained according to the manufacturer's protocol, where the final concentrations of Hoechst 33342 and PI were 5 μg/ml and 2 μg/ml in PBS buffer. The plate was incubated at 4° C. for 30 min and observed on a fluorescence microscope or automatic cell imaging system. Viable cells were quantified using a MD Image Xpress Micro XL (Molecular Devices)."}, "[3]": {"test_system": "human senescent fibroblasts induced by different stimuli", "test": "Cell viability, senescent and non-senescent human embryonic fibroblasts (HEFs)", "type": "cell-based", "description": "Human embryonic skin fibroblasts (HEFs) were obtained as previously described. Briefly, human embryonic skin tissues, obtained from aborted tissue with informed patient consent, were minced with forceps and incubated in 1 mg/ml collagenase IV for 1-2 hours at 37° C. After enzyme treatment, cells were collected by centrifugation and resuspended in HEF medium (Dulbecco's modified Eagle's medium (DMEM, Gibco) containing 10% fetal bovine serum (FBS, Ausbian), 1% GlutaMAX (Gibco), 1% Non-Essential Amino Acids (NEAA, Gibco) and 1% penicillin/streptomycin (Gibco). Cells were plated on 10 cm tissue culture dishes and grown in 10% FBS DMEM.\nas §1\nFor ionizing radiation-induced senescence, MEFs and HEFs were exposed to 10 Gy of ionizing irradiation in an RS 2000 X-ray Biological Irradiator (Rad Source Technologies, Inc.) at a dose rate of 1.205 Gy/min. The day after irradiation, MEFs or HEFs were passaged at a 1:3 dilution and cultured for another three days. Then these cells were plated to carry out further experiments.\nFor etoposide-induced senescence, MEFs were treated with 2 μM etoposide for 20 hours, and HEFs were treated with 10 μM etoposide for 12-18 hours. Three days after treatment, cells were sub-cultured at a 1:3 ratio for 72 hours in a fresh medium before further analysis.\nas §2, with “cells.” for “cells. After treatment with the small molecules, the cell culture medium was removed, and the cells were washed once with PBS.”"}, "[4]": {"test_system": "SARS-CoV-2-infected rhesus macaques", "test": "SARS-CoV-2-infected rhesus macaques, early-stage SSK1 treatment (2.0 mg/kg once daily for 7 days from 0 dpi)", "type": "in vivo", "details": "for Clinical observation: Body weight change (%) / Clinical observation: Increased temperature: 2.0 mg/kg"}, "[5]": {"details": "rhesus monkey, in vivo"}}, "note": "Like-named read-outs stand apart in the source and are kept apart here."}
{"molecule": "CC(=O)OCC1O[C@@H](Oc2ccc(COC(=O)Nc3ccn([C@@H]4O[C@H](CO)C(O)C4(F)F)c(=O)n3)cc2[N+](=O)[O-])C(OC(C)=O)C(OC(C)=O)[C@H]1OC(C)=O", "note": "(stereo partly shown) [SSK1]", "values": [{"measurement": "Selective killing of senescent cells (viable cells)", "setting": "[1]", "value": "selectively and potently eliminated SA-β-gal-positive senescent cells over non-senescent cells with a wide therapeutic window"}, {"measurement": "Effect of GLB1 knockdown on killing of senescent cells by SSK1", "setting": "[2]", "value": "impaired the ability of SSK1 to kill SA-β-gal-positive senescent cells"}, {"measurement": "Clearance of senescent cells", "setting": "[3]; senescent HEFs induced by different stresses vs non-senescent counterparts", "value": "cleared by SSK1"}, {"measurement": "Percentage of cell viability in senescent cell populations", "setting": "[3]; vehicle or treated senescent HEFs, FIG. 2F", "value": "dose dependent decrease of senescent cells"}, {"measurement": "Progression of pulmonary infiltrates on chest X-ray", "setting": "[4]; 6 dpi compared to 3 dpi", "value": "no progression"}, {"measurement": "Clinical observation: Body weight change (%)", "setting": "[4]; M1 adult 5-year", "value": "+4.62%"}, {"measurement": "Clinical observation: Increased temperature", "setting": "[4]; M1 adult 5-year", "value": "light"}, {"measurement": "Clinical observation: Body weight change (%)", "setting": "[4]; M2 adult 5-year", "value": "+1.64%"}, {"measurement": "Clinical observation: Increased temperature", "setting": "[4]; M2 adult 5-year", "value": "light"}, {"measurement": "Large necrotic lesions in the livers at necropsy", "setting": "[4]; SSK1-treated group", "value": "not in the SSK1-treated group"}, {"measurement": "Lung histopathology (H&E)", "setting": "[4]; SSK1-treated group", "value": "minimally thickened alveolar septum and focal edema"}, {"measurement": "Serum level of IL-18", "setting": "[4]; SSK1-treated group", "value": "increased significantly"}, {"measurement": "Virus shedding (virus load in nose, throat, anal swabs and blood, RT-qPCR)", "setting": "[4]; SSK1-treated group", "value": "no delay but even faster reduction in virus shedding"}, {"measurement": "Body temperature", "setting": "[4]; SSK1-treated group, 2 mg/kg", "value": "relatively stable"}, {"measurement": "Body weight", "setting": "[4]; SSK1-treated group, 2 mg/kg, 0 to 7 dpi", "value": "remained constant"}, {"measurement": "Airway narrowing and mucinous secretions (AB-PAS staining)", "setting": "[4]; SSK1 treatment", "value": "recovered the airway narrowing and extensive mucinous secretions"}, {"measurement": "Gross lung lesions at necropsy", "setting": "[4]; animal M1", "value": "Some brown punctate lesions"}, {"measurement": "Pulmonary hemorrhages (H&E)", "setting": "[4]; animal M1", "value": "local pulmonary hemorrhages"}, {"measurement": "Ground-glass opacification in the lungs on X-ray", "setting": "[4]; animal M1, 2 mg/kg, 3 dpi", "value": "Ground-glass opacification appeared"}, {"measurement": "Gross lung lesions at necropsy", "setting": "[4]; animal M2", "value": "No obvious lung lesions"}, {"measurement": "Signs of pneumonia on X-ray", "setting": "[4]; animal M2, 2 mg/kg", "value": "no signs of pneumonia on X-ray throughout the experiment"}, {"measurement": "Concentrations of inflammatory cytokines GM-CSF, IL-1β, IL-12, MIP-1A and TNF-α in lung tissues", "setting": "[4]; vs vehicle", "value": "lower"}, {"measurement": "Viral load in the respiratory tract tissues and multiple organs", "setting": "[4]; vs vehicle-treated group", "value": "grossly lower"}, {"measurement": "UA", "setting": "[5]; 0.5 mg/kg", "value": 9, "unit": "µmol/L"}, {"measurement": "UA", "setting": "[5]; 2 mg/kg", "value": 10, "unit": "µmol/L"}]}
